The results in this text go back to patent publication US20090069320A1, “Substituted 4-Amino-Quinazoline Compounds with Metabotropic Glutamate Receptor Regulating Activity and Uses Thereof” (Gruenenthal GmbH, priority 2006, published 2009).

In this assay the target is T1, mGluR5 receptor (Sus scrofa, UniProt I3LUI7).
T1 construct: 450 μg of protein from brain homogenate with 5 nM ^3[H]-MPEP; from tissue; host or cells: pig brain halves without medulla, cerebellum and pons
Kind of assay: [3H]-MPEP mGluR5 receptor binding assay (pig brain homogenate). Conditions: 5 nM [3H]-MPEP; for inhibition at 10 µM / % Inhibition of mGluR5 Receptor (pig) [^3H]-MPEP Bond at 10 μM: 10 μM compound; for inhibition at 10 µM: read-out: % Inhibition of mGluR5 Receptor (pig) [^3H]-MPEP Bond at 10 μM; for IC50: read-out: IC50 mGluR5 Receptor (pig) [^3H]-MPEP Bond. An outline of the steps: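 Radioligand displacement of 5 nM [3H]-MPEP from pig brain homogenate (450 μg protein; medulla, cerebellum and pons removed) in 20 mM Hepes pH 8.0. Compounds were tested at 10 μM, incubated 60 min at room temperature, then filtered and counted by scintillation. Non-specific binding was defined with 10 μM MPEP.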

T1 sequence (I3LUI7 19-1212): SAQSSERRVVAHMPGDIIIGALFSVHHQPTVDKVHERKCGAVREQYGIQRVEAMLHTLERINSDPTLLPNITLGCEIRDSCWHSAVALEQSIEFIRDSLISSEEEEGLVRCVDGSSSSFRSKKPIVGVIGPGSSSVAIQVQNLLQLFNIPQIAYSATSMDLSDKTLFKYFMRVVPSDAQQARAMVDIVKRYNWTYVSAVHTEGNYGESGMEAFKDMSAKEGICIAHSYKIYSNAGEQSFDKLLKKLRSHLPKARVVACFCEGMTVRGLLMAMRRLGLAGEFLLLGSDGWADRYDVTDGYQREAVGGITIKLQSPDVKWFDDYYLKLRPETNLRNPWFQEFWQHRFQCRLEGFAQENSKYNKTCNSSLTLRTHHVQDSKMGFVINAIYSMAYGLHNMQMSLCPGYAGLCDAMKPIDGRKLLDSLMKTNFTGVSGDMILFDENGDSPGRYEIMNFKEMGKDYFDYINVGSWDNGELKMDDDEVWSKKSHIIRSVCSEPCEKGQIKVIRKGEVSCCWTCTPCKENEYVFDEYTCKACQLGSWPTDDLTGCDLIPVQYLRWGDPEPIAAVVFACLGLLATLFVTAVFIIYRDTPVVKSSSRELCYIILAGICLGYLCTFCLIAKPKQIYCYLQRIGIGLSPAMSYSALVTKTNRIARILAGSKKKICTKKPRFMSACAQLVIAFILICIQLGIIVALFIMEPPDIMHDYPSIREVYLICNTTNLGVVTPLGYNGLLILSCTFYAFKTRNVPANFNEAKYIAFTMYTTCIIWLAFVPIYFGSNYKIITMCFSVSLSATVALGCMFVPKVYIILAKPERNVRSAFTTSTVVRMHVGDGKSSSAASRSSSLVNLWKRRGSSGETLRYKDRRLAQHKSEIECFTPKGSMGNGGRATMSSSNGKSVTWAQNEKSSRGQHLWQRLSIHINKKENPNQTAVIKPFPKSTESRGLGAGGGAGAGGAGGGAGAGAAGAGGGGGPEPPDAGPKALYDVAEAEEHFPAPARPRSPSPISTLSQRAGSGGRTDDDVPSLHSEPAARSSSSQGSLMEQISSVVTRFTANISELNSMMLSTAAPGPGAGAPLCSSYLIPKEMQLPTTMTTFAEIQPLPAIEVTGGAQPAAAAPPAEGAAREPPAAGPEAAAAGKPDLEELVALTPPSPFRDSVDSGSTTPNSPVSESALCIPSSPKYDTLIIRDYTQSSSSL

In the case of `COc1ccc(CNc2ncnc3ccc(-c4cccc(CN(C(=O)CN(C)C)C5CC5)c4)cc23)c(OC)c1` [Example 689, N-cyclopropyl-N-(3-(4-(2,4-dimethoxybenzylamino)quinazolin-6-yl)benzyl)-2-(dimethylamino)acetamide], the inhibition at 10 µM was found to be 41%.

For `Cc1cc2ncnc(NC3CC3)c2cc1-c1cccc(CN(C(=O)c2ccco2)C2CC2)c1` [Example 691, N-cyclopropyl-N-(3-(4-(cyclopropylamino)-7-methylquinazolin-6-yl)benzyl)furan-2-carboxamide], the inhibition at 10 µM was 83%.

As for `Cc1cc2ncnc(NC3CC3)c2cc1-c1cccc(CN(C(=O)c2cc(Cl)cc(Cl)c2)C2CC2)c1` [Example 692, 3,5-dichloro-N-cyclopropyl-N-(3-(4-(cyclopropylamino)-7-methylquinazolin-6-yl)benzyl)benzamide], the inhibition at 10 µM is 67%.

`O=C(c1ccccc1)N(Cc1cccc(-c2cc(F)c3ncnc(NC4CC4)c3c2)c1)C1CC1` [Example 693, N-cyclopropyl-N-(3-(4-(cyclopropylamino)-8-fluoroquinazolin-6-yl)benzyl)benzamide]: the inhibition at 10 µM was found to be 102%.

Take `COc1ccc(S(=O)(=O)N(Cc2cccc(-c3cc(F)c4ncnc(NC5CC5)c4c3)c2)C2CC2)cc1` [Example 694, N-cyclopropyl-N-(3-(4-(cyclopropylamino)-8-fluoroquinazolin-6-yl)benzyl)-4-methoxybenzole sulfonamide]: the “% Inhibition of mGluR5 Receptor (pig) [^3H]-MPEP Bond at 10 μM” value was 82%.

Turning to `Cc1cc2ncnc(NC3CC3)c2cc1-c1cccc(CN(C2CC2)S(C)(=O)=O)c1` [Example 697, N-cyclopropyl-N-(3-(4-(cyclopropylamino)-7-methylquinazolin-6-yl)benzyl)methane sulfonamide], the inhibition at 10 µM was 90%.

In the case of `Cc1cc2ncnc(NC3CC3)c2cc1-c1cccc(CN(C(=O)c2cccs2)C2CC2)c1` [Example 698, N-cyclopropyl-N-(3-(4-(cyclopropylamino)-7-methylquinazolin-6-yl)benzyl)thiophene-2-carboxamide], the inhibition at 10 µM stood at 89%.

With `Cc1cc2ncnc(NC3CC3)c2cc1-c1cccc(CN(C(=O)c2ccccn2)C2CC2)c1` [Example 699, N-cyclopropyl-N-(3-(4-(cyclopropylamino)-7-methylquinazolin-6-yl)benzyl)picolinamide], the inhibition at 10 µM amounted to 90%.

With `COc1ccc(C(=O)N(Cc2cccc(-c3cc(F)c4ncnc(NC5CC5)c4c3)c2)C2CC2)cc1OC` [Example 700, N-cyclopropyl-N-(3-(4-(cyclopropylamino)-8-fluoroquinazolin-6-yl)benzyl)-3,4-dimethoxybenzamide], the inhibition at 10 µM stood at 81%.

On to `O=S(=O)(c1cccs1)N(Cc1cccc(-c2cc(F)c3ncnc(NC4CC4)c3c2)c1)C1CC1` [Example 701, N-cyclopropyl-N-(3-(4-(cyclopropylamino)-8-fluoroquinazolin-6-yl)benzyl)thiophene-2-sulfonamide], for which the inhibition at 10 µM was determined as 93%.

For `Cc1cc2ncnc(NC3CC3)c2cc1-c1cccc(CN(C(=O)c2cccnc2)C2CC2)c1` [Example 702, N-cyclopropyl-N-(3-(4-(cyclopropylamino)-7-methylquinazolin-6-yl)benzyl)nicotinamide], the inhibition at 10 µM is 86%.

With `O=C(CCc1ccccc1)N(Cc1cccc(-c2cc(F)c3ncnc(NC4CC4)c3c2)c1)C1CC1` [Example 703, N-cyclopropyl-N-(3-(4-(cyclopropylamino)-8-fluoroquinazolin-6-yl)benzyl)-3-phenylpropanamide], the inhibition at 10 µM was determined as 87%.

Take `Cc1cc2ncnc(NC3CC3)c2cc1-c1cccc(CN(C2CC2)S(=O)(=O)C(C)C)c1` [Example 705, N-cyclopropyl-N-(3-(4-(cyclopropylamino)-7-methylquinazolin-6-yl)benzyl)propane-2-sulfonamide]: the inhibition at 10 µM was found to be 86%.

Take `Cc1cc(C(=O)N(Cc2cccc(-c3cc4c(NC5CC5)ncnc4cc3C)c2)C2CC2)n(C)n1` [Example 706, N-cyclopropyl-N-(3-(4-(cyclopropylamino)-7-methylquinazolin-6-yl)benzyl)-1,3-dimethyl-1H-pyrazole-5-carboxamide]: the inhibition at 10 µM came out at 69%.

Take `Cc1cc2ncnc(NC3CC3)c2cc1-c1cccc(CN(C(=O)c2ccncc2)C2CC2)c1` [Example 707, N-cyclopropyl-N-(3-(4-(cyclopropylamino)-7-methylquinazolin-6-yl)benzyl)isonicotinamide]: the inhibition at 10 µM was found to be 89%.

`O=C(c1ccccn1)N(Cc1cccc(-c2cc(F)c3ncnc(NC4CC4)c3c2)c1)C1CC1` [Example 708, N-cyclopropyl-N-(3-(4-(cyclopropylamino)-8-fluoroquinazolin-6-yl)benzyl)picolinamide]: the IC50 turned out to be 0.13 µM.

As to `O=S(=O)(c1cccc2cccnc12)N(Cc1cccc(-c2cc(F)c3ncnc(NC4CC4)c3c2)c1)C1CC1` [Example 709, N-cyclopropyl-N-(3-(4-(cyclopropylamino)-8-fluoroquinazolin-6-yl)benzyl)quinoline-8-sulfonamide], the inhibition at 10 µM was 36%.

Take `CC(=O)N(Cc1cccc(-c2cc3c(NC4CC4)ncnc3cc2C)c1)C1CC1` [Example 710, N-cyclopropyl-N-(3-(4-(cyclopropylamino)-7-methylquinazolin-6-yl)benzyl)acetamide]: the IC50 amounted to 0.11 µM.

Regarding `Cc1cc2ncnc(NC3CC3)c2cc1-c1cccc(CN(C2CC2)S(=O)(=O)Cc2ccccc2)c1` [Example 713, N-cyclopropyl-N-(3-(4-(cyclopropylamino)-7-methylquinazolin-6-yl)benzyl)-1-phenylmethane sulfonamide], the inhibition at 10 µM was determined as 51%.

Regarding `Cc1cc2ncnc(NC3CC3)c2cc1-c1cccc(CN(C(=O)c2ccccc2)C2CC2)c1` [Example 714, N-cyclopropyl-N-(3-(4-(cyclopropylamino)-7-methylquinazolin-6-yl)benzyl)benzamide], the inhibition at 10 µM came to 95%.

Take `CCCCC(=O)N(Cc1cccc(-c2cc3c(NC4CC4)ncnc3cc2C)c1)C1CC1` [Example 715, N-cyclopropyl-N-(3-(4-(cyclopropylamino)-7-methylquinazolin-6-yl)benzyl)pentanamide]: the inhibition at 10 µM amounted to 90%.

With `CC(=O)N(Cc1cccc(-c2cc(F)c3ncnc(NC4CC4)c3c2)c1)C1CC1` [Example 716, N-cyclopropyl-N-(3-(4-(cyclopropylamino)-8-fluoroquinazolin-6-yl)benzyl)acetamide], the IC50 was 0.12 µM.

As to `CNc1ncnc2ccc(-c3ccc(F)c(CN(C)C(=O)CN(C)C)c3)cc12` [Example 718, 2-(dimethylamino)-N-(2-fluoro-5-(4-(methylamino)quinazolin-6-yl)benzyl)-N-methylacetamide], the inhibition at 10 µM was determined as 40%.

Consider `Cc1cc2ncnc(NC3CC3)c2cc1-c1cccc(CN(C(=O)C(C)(C)C)C2CC2)c1` [Example 719, N-cyclopropyl-N-(3-(4-(cyclopropylamino)-7-methylquinazolin-6-yl)benzyl)pivalamide], for which the inhibition at 10 µM amounted to 84%.

Turning to `Cc1cc2ncnc(NC3CC3)c2cc1-c1cccc(CN(C2CC2)S(=O)(=O)c2ccccc2)c1` [Example 721, N-cyclopropyl-N-(3-(4-(cyclopropylamino)-7-methylquinazolin-6-yl)benzyl)benzole sulfonamide], the “% Inhibition of mGluR5 Receptor (pig) [^3H]-MPEP Bond at 10 μM” value is listed as 87%.

By inhibition is commonly meant the change of the read-out against control, counted positive when it falls. In general, IC50 refers to the concentration that gives 50% inhibition.
